DBAASP
Converted amounts (≈) assume the structure as drawn. Blank lines part the entries; values can stand above or below the molecule they belong to.

Assays:
Assay in all cases: ≥ marks a high value that may be exact or a test limit, other limits are often not marked, values filed in µg/mL are converted to µM
[1] = tested on: Saccharomyces cerevisiae AS2.430
[2] = tested on: Staphylococcus aureus ATCC 25923
[3] = tested on: Escherichia coli ATCC 25922
[4] = tested on: Bacillus subtilis KCCM 11495
[5] = tested on: Escherichia coli KCCM 11569
[6] = tested on: Micrococcus luteus ATCC 4698
[7] = tested on: Proteus mirabilis ATCC 25933
[8] = tested on: Staphylococcus aureus KCTC 3881
[9] = tested on: Bacillus subtilis ATCC 6633
[10] = tested on: Candida albicans ATCC 36232
[11] = tested on: Escherichia coli KCTC 2433
[12] = tested on: Staphylococcus epidermidis ATCC 12228
[13] = tested on: Klebsiella pneumoniae ATCC 10031
[14] = tested on: Shigella dysenteriae ATCC 9752
[15] = tested on: Pseudomonas aeruginosa ATCC 9027
[16] = tested on: Klebsiella pneumoniae LMG 20218
[17] = tested on: Trichosporon beigelii KCTC 7707
[18] = tested on: Pseudomonas aeruginosa H103
[19] = tested on: Staphylococcus epidermidis
[20] = tested on: Acinetobacter baumannii LMG 01041
[21] = tested on: Pseudomonas aeruginosa LMG 6395
[22] = tested on: Enterococcus faecalis ATCC 29212
[23] = tested on: Staphylococcus aureus USA 300
Candida albicans = tested on: Candida albicans
[24] = tested on: Escherichia coli LMG 15862
[25] = tested on: Mycobacterium tuberculosis H37Rv
[26] = tested on: Malassezia furfur KCTC 7744
[27] = tested on: Pseudomonas aeruginosa PAO1 H103
[28] = tested on: Klebsiella aerogenes LMG 02094
[29] = tested on: Staphylococcus aureus ATCC 29213
[30] = tested on: Salmonella enterica serovar Typhimurium
[31] = tested on: Staphylococcus aureus USA 100
[32] = tested on: Candida parapsilosis ATCC 22019
Escherichia coli UB1005 = tested on: Escherichia coli UB1005
Pseudomonas sp. = tested on: Pseudomonas sp.
Pseudomonas aeruginosa = tested on: Pseudomonas aeruginosa
Acinetobacter sp. = tested on: Acinetobacter sp.
Escherichia coli = tested on: Escherichia coli
Citrobacter sp. = tested on: Citrobacter sp.
Staphylococcus aureus = tested on: Staphylococcus aureus
Bacillus subtilis = tested on: Bacillus subtilis
Klebsiella pneumoniae = tested on: Klebsiella pneumoniae
[33] = tested on: Pseudomonas aeruginosa ATCC 27853
[34] = tested on: Acinetobacter baumannii ATCC 7978
[35] = tested on: Klebsiella aerogenes ATCC 13048
[36] = tested on: Staphylococcus aureus MW2
[37] = tested on: Candida albicans ATCC 10231
[38] = tested on: Staphylococcus aureus ATCC 29231

SMILES: CC[C@H](C)[C@H](NC(=O)[C@H](CC(C)C)NC(=O)[C@@H](N)Cc1ccccc1)C(=O)NCC(=O)N[C@@H](CCSC)C(=O)N[C@H](C(=O)N[C@@H](Cc1cnc[nH]1)C(=O)NCC(=O)N[C@@H](CC(C)C)C(=O)N[C@H](C(=O)N[C@H]1CSSC[C@@H](C(=O)O)NC(=O)[C@H](CCCCN)NC(=O)[C@H](CCCN=C(N)N)NC(=O)[C@H](CO)NC(=O)[C@H]([C@@H](C)CC)NC(=O)[C@H](CC(C)C)NC1=O)[C@@H](C)CC)[C@@H](C)O [FLIGMTHGLICLISRKC]
MIC [6]: 6.56 µM (≈ 12.5 µg/mL) | MIC [7]: ≥ 52.5 µM | MIC [8]: 13.1 µM (≈ 25 µg/mL) | MIC [9]: 26.2 µM (≈ 49.9 µg/mL) | MIC [10]: ≥ 52.5 µM | MIC [11]: ≥ 52.5 µM | MIC [12]: 31.5 µM (≈ 59.9 µg/mL) | MIC [13]: ≥ 52.5 µM | MIC [14]: ≥ 52.5 µM | MIC [15]: > 52.5 µM

SMILES: CC[C@H](C)[C@H](NC(=O)[C@H](CC(C)C)NC(=O)[C@H](CCCN=C(N)N)NC(=O)[C@H](CC(C)C)NC(=O)[C@H](CCCCN)NC(=O)CN)C(=O)N[C@@H](CCCCN)C(=O)N[C@@H](CCCCN)C(=O)N[C@@H](CC(C)C)C(=O)N[C@@H](Cc1c[nH]c2ccccc12)C(=O)N[C@H](C(=O)N[C@@H](CCCCN)C(=O)N[C@@H](CCCCN)C(=O)N[C@@H](Cc1c[nH]c2ccccc12)C(=O)N[C@@H](CCCCN)C(=O)N[C@@H](CCCCN)C(=O)N[C@@H](CCCCN)C(=O)NCC(=O)N[C@@H](Cc1c[nH]c2ccccc12)C(=O)N[C@@H](CCCCN)C(=O)N[C@@H](C)C(N)=O)C(C)C [GKLRLIKKLWVKKWKKKGWKA]
MIC (Pseudomonas sp.): 2 µM (≈ 5.24 µg/mL) | MIC (Pseudomonas aeruginosa): 2 µM (≈ 5.24 µg/mL) | MIC (Acinetobacter sp.): 2 µM (≈ 5.24 µg/mL) | MIC (Escherichia coli): 2 µM (≈ 5.24 µg/mL) | MIC [2]: 2 µM (≈ 5.24 µg/mL) | MIC (Citrobacter sp.): 2 µM (≈ 5.24 µg/mL) | MIC [3]: 2 µM (≈ 5.24 µg/mL) | MIC (Staphylococcus aureus): 4 µM (≈ 10.5 µg/mL) | MIC (Bacillus subtilis): 2 µM (≈ 5.24 µg/mL) | MIC (Klebsiella pneumoniae): 2.83 µM (≈ 7.42 µg/mL) | MIC [33]: 2 µM (≈ 5.24 µg/mL)

SMILES: CC[C@H](C)[C@H](NC(=O)[C@H](CCCCN)NC(=O)[C@H](CCCCN)NC(=O)[C@H](CC(C)C)NC(=O)[C@@H](NC(=O)[C@H](CCCCN)NC(=O)[C@H](Cc1c[nH]c2ccccc12)NC(=O)[C@@H](N)CC(C)C)[C@@H](C)CC)C(=O)N[C@@H](Cc1c[nH]c2ccccc12)C(=O)N[C@@H](CCCN=C(N)N)C(=O)N[C@H](C(=O)N[C@@H](CC(C)C)C(=O)N[C@@H](Cc1c[nH]c2ccccc12)C(=O)N[C@@H](CC(N)=O)C(=O)N[C@@H](Cc1c[nH]c2ccccc12)C(=O)N[C@@H](CCCN=C(N)N)C(=O)O)C(C)C [LWKILKKIWRVLWNWR]
MIC [34]: ≥ 57.2 µM | MIC [35]: ≥ 57.2 µM | MIC [36]: 28.6 µM (≈ 64 µg/mL) | MIC [37]: 28.6 µM (≈ 64 µg/mL) | MIC [38]: 14.3 µM (≈ 32 µg/mL)

Results, then the molecule that gave them:

MIC [1]: ≥ 6750 µM | MIC [2]: 211 µM (≈ 313 µg/mL) | MIC [3]: 211 µM (≈ 313 µg/mL)
SMILES: CC(C)C[C@H](NC(=O)[C@H](CO)NC(=O)CNC(=O)[C@H](CCC(=O)O)NC(=O)[C@H](CC(C)C)NC(=O)[C@H](CCC(=O)O)NC(=O)[C@H](C)NC(=O)[C@H](CCC(N)=O)NC(=O)[C@H](CO)NC(=O)[C@H](CCC(=O)O)NC(=O)[C@H](CCC(=O)O)NC(=O)[C@@H](N)Cc1ccc(O)cc1)C(=O)N[C@@H](CCCCN)C(=O)O [YEESQAELEGSLK]

MIC [4]: 6.48 µM (≈ 11.3 µg/mL) | MIC [5]: 25.9 µM (≈ 45.2 µg/mL)
SMILES: CC(C)C[C@H](NC(=O)CNC(=O)[C@H](Cc1cnc[nH]1)NC(=O)[C@H](Cc1cnc[nH]1)NC(=O)[C@H](CC(C)C)NC(=O)[C@H](CC(C)C)NC(=O)[C@H](C)NC(=O)[C@H](CC(N)=O)NC(=O)[C@H](CC(C)C)NC(=O)[C@@H](N)Cc1c[nH]c2ccccc12)C(=O)N[C@@H](CC(N)=O)C(=O)N[C@@H](CS)C(=O)N[C@@H](C)C(=O)N[C@@H](CCCCN)C(=O)NCC(=O)N[C@H](C(N)=O)C(C)C [WLNALLHHGLNCAKGV]

MIC [16]: 6 µM (≈ 7.1 µg/mL) | MIC [17]: 12.5 µM (≈ 14.8 µg/mL) | MIC [18]: 6.75 µM (≈ 7.99 µg/mL) | MIC [19]: 1.69 µM (≈ 2 µg/mL) | MIC [20]: 2 µM (≈ 2.37 µg/mL) | MIC [21]: 3 µM (≈ 3.55 µg/mL) | MIC [22]: 1.69 µM (≈ 2 µg/mL) | MIC [23]: 6.25 µM (≈ 7.4 µg/mL) | MIC (Candida albicans): 6.75 µM (≈ 7.99 µg/mL) | MIC [24]: 3 µM (≈ 3.55 µg/mL) | MIC [25]: 2.2 µM (≈ 2.6 µg/mL) | MIC [2]: 1.69 µM (≈ 2 µg/mL) | MIC [26]: 25 µM (≈ 29.6 µg/mL) | MIC [27]: 3.38 µM (≈ 4 µg/mL) | MIC [28]: 5 µM (≈ 5.92 µg/mL) | MIC [29]: 6.75 µM (≈ 7.99 µg/mL) | MIC [30]: 6.75 µM (≈ 7.99 µg/mL) | MIC [3]: 3.38 µM (≈ 4 µg/mL) | MIC [31]: 6.25 µM (≈ 7.4 µg/mL) | MIC [32]: 12.5 µM (≈ 14.8 µg/mL) | MIC [15]: 12.5 µM (≈ 14.8 µg/mL) | MIC (Escherichia coli UB1005): 1.69 µM (≈ 2 µg/mL)
SMILES: CC[C@H](C)[C@H](NC(=O)[C@@H](NC(=O)[C@H](Cc1c[nH]c2ccccc12)NC(=O)[C@@H](NC(=O)[C@@H](N)CCCN=C(N)N)[C@@H](C)CC)C(C)C)C(=O)N[C@@H](Cc1c[nH]c2ccccc12)C(=O)N[C@@H](CCCN=C(N)N)C(=O)N[C@@H](CCCN=C(N)N)C(N)=O [RIWVIWRR]
